According to patent US9174973B2, “Crystalline forms of azilsartan and preparation and uses thereof” (SUNSHINE LAKE PHARMA CO., LTD., priority 2011, dated 2015):

What was measured:
[1] = Thermal Stability of crystalline form A; type: physicochemical; conditions: 60° C.
Protocol: (§1) A layer of crystalline form A having a thickness of less than 5 mm was place in a flat weighing bottle. […] Samples were taken out at 6 days, 11 days and 16 days and examined for purity by HPLC, appearance and crystalline form. The conditions for the HPLC measurements are as shown below. • Instrument: Agilent 1200HPLC • Column: Agilent Eclipse XDB-C18 4.6*150 mm, 5 μm • Detection wavelength: 254 nm • Mobile phase: A phase 10 mM ammonium acetate (pH=3.5) and B phase acetonitrile [table]

[2] = Light Stability of crystalline form A; type: physicochemical; conditions: light 4500+/−500 Lux
Protocol: as §1

RT* (min.) 30.66 (HPLC peak) ([1]; 6 days): 0.03%
Appearance ([1]; 11 days): White or off-
Crystalline form ([1]; 11 days): Form A
RT* (min.) 2.89 (HPLC peak) ([1]; 11 days): 0.01%
RT* (min.) 3.9 (HPLC peak) ([1]; 11 days): 0.35%
RT* (min.) 13.2 (azilsartan peak, purity by HPLC) ([1]; 11 days): 99.48%
RT* (min.) 20.55 (HPLC peak) ([1]; 11 days): 0.02%
RT* (min.) 22.8 (HPLC peak) ([1]; 11 days): 0.04%
RT* (min.) 23.6 (HPLC peak) ([1]; 11 days): 0.02%
RT* (min.) 27.5 (HPLC peak) ([1]; 11 days): 0.07%
RT* (min.) 30.66 (HPLC peak) ([1]; 11 days): 0.02%
Appearance ([1]; 16 days): White or off-
Crystalline form ([1]; 16 days): Form A
RT* (min.) 2.89 (HPLC peak) ([1]; 16 days): 0.01%
RT* (min.) 3.9 (HPLC peak) ([1]; 16 days): 0.35%
RT* (min.) 13.2 (azilsartan peak, purity by HPLC) ([1]; 16 days): 99.47%
RT* (min.) 20.55 (HPLC peak) ([1]; 16 days): 0.02%
RT* (min.) 22.8 (HPLC peak) ([1]; 16 days): 0.04%
RT* (min.) 23.6 (HPLC peak) ([1]; 16 days): 0.02%
RT* (min.) 27.5 (HPLC peak) ([1]; 16 days): 0.07%
RT* (min.) 30.66 (HPLC peak) ([1]; 16 days): 0.02%
Appearance ([2]; 6 days): Light yellow
Crystalline form ([2]; 6 days): Form A
RT* (min.) 2.39 (HPLC peak) ([2]; 6 days): 0.01%
RT* (min.) 2.89 (HPLC peak) ([2]; 6 days): 0.09%
RT* (min.) 3.9 (HPLC peak) ([2]; 6 days): 0.32%
RT* (min.) 13.2 (azilsartan peak, purity by HPLC) ([2]; 6 days): 99.45%
RT* (min.) 22.8 (HPLC peak) ([2]; 6 days): 0.04%
RT* (min.) 23.6 (HPLC peak) ([2]; 6 days): 0.01%
RT* (min.) 27.5 (HPLC peak) ([2]; 6 days): 0.06%
RT* (min.) 30.66 (HPLC peak) ([2]; 6 days): 0.02%
Appearance ([2]; 11 days): Light yellow
Crystalline form ([2]; 11 days): Form A
RT* (min.) 2.39 (HPLC peak) ([2]; 11 days): 0.04%
RT* (min.) 2.89 (HPLC peak) ([2]; 11 days): 0.14%
RT* (min.) 3.9 (HPLC peak) ([2]; 11 days): 0.61%
RT* (min.) 5.79 (HPLC peak) ([2]; 11 days): 0.02
RT* (min.) 13.2 (azilsartan peak, purity by HPLC) ([2]; 11 days): 98.71%
RT* (min.) 20.55 (HPLC peak) ([2]; 11 days): 0.07%
RT* (min.) 22.8 (HPLC peak) ([2]; 11 days): 0.06%
RT* (min.) 23.6 (HPLC peak) ([2]; 11 days): 0.03%
RT* (min.) 26.96 (HPLC peak) ([2]; 11 days): 0.01%
RT* (min.) 27.5 (HPLC peak) ([2]; 11 days): 0.29%
RT* (min.) 28.81 (HPLC peak) ([2]; 11 days): 0.01%
RT* (min.) 30.66 (HPLC peak) ([2]; 11 days): 0.03%
Appearance ([2]; 16 days): Light yellow
Crystalline form ([2]; 16 days): Form A
RT* (min.) 2.39 (HPLC peak) ([2]; 16 days): 0.05%
RT* (min.) 2.89 (HPLC peak) ([2]; 16 days): 0.22%
RT* (min.) 3.9 (HPLC peak) ([2]; 16 days): 0.34%
RT* (min.) 13.2 (azilsartan peak, purity by HPLC) ([2]; 16 days): 99.24%
RT* (min.) 22.8 (HPLC peak) ([2]; 16 days): 0.04%
RT* (min.) 23.6 (HPLC peak) ([2]; 16 days): 0.01%
RT* (min.) 27.5 (HPLC peak) ([2]; 16 days): 0.09%
Compound: CCOc1nc2cccc(C(=O)O)c2n1Cc1ccc(-c2ccccc2-c2noc(=O)[nH]2)cc1 [Form A]
RT* (min.) 2.39 (HPLC peak) ([1]; 11 days): — (“—” refers to the peak area is less than 3000 or there is no peak)
RT* (min.) 5.79 (HPLC peak) ([1]; 11 days): — (“—” refers to the peak area is less than 3000 or there is no peak)
RT* (min.) 26.96 (HPLC peak) ([1]; 11 days): — (“—” refers to the peak area is less than 3000 or there is no peak)
RT* (min.) 28.81 (HPLC peak) ([1]; 11 days): — (“—” refers to the peak area is less than 3000 or there is no peak)
RT* (min.) 2.39 (HPLC peak) ([1]; 16 days): — (“—” refers to the peak area is less than 3000 or there is no peak)
RT* (min.) 5.79 (HPLC peak) ([1]; 16 days): — (“—” refers to the peak area is less than 3000 or there is no peak)
RT* (min.) 26.96 (HPLC peak) ([1]; 16 days): — (“—” refers to the peak area is less than 3000 or there is no peak)
RT* (min.) 28.81 (HPLC peak) ([1]; 16 days): — (“—” refers to the peak area is less than 3000 or there is no peak)
RT* (min.) 5.79 (HPLC peak) ([2]; 6 days): — (“—” refers to the peak area is less than 3000 or there is no peak)
RT* (min.) 20.55 (HPLC peak) ([2]; 6 days): — (“—” refers to the peak area is less than 3000 or there is no peak)
RT* (min.) 26.96 (HPLC peak) ([2]; 6 days): — (“—” refers to the peak area is less than 3000 or there is no peak)
RT* (min.) 28.81 (HPLC peak) ([2]; 6 days): — (“—” refers to the peak area is less than 3000 or there is no peak)
RT* (min.) 5.79 (HPLC peak) ([2]; 16 days): — (“—” refers to the peak area is less than 3000 or there is no peak)
RT* (min.) 20.55 (HPLC peak) ([2]; 16 days): — (“—” refers to the peak area is less than 3000 or there is no peak)
RT* (min.) 26.96 (HPLC peak) ([2]; 16 days): — (“—” refers to the peak area is less than 3000 or there is no peak)
RT* (min.) 28.81 (HPLC peak) ([2]; 16 days): — (“—” refers to the peak area is less than 3000 or there is no peak)
RT* (min.) 30.66 (HPLC peak) ([2]; 16 days): — (“—” refers to the peak area is less than 3000 or there is no peak)
